Assays:
Ras-PI3K complex = type: cell-based; details: Cos-1 cells, VN-H-Ras G12V, time-lapse confocal after Vps34-IN1; n=12
Experimental: Imaging of BiFC and FRET, and their data analysis were performed essentially as described previously ([Fujioka et al., 2013]; [Ohba et al., 2003]; [Tsutsumi et al., 2009]). In brief, cells plated on a collagen-coated, 35-mm-diameter glass-base dish were transfected with expression vectors. After 24 hours, cells were serum-starved in phenol red-free DMEM/F12 (Thermo Fisher Scientific) for 4 hours and placed in a stage-top incubation chamber (Live Cell Instrument, Soul, Korea) that was maintained at 37°C. Beginning at 10 min, cells were stimulated with 100 ng/ml EGF. BiFC images were acquired using a spinning disk mode, whereas FRET images were obtained using epifluorescence mode. To represent FRET efficacy, the FRET/CFP emission ratio was calculated as the quotient of background-subtracted FRET and CFP images. To stabilize jittery image stacks of time-lapse data set, ‘Image Stabilizer’ plug-in of ImageJ (https://imagej.nih.gov/ij) was used. MetaMorph software converts image stacks of time-lapse data set into one QuickTime movie.
Vesicles positive for a BiFC signal (from Ras-PI3K complex) or TagRFP (EEA-1) were extracted with the use of the ‘Top Hat’ module of MetaMorph software, and colocalization of the Ras-PI3K complex with EEA-1 was quantified with the use of the ‘measure colocalization’ function of the software.

class III PI3K Vps34 = assay: Time-lapse confocal imaging of endosomal markers after Vps34 inhibition; details: Cos-1 cells, Vps34-IN1 treatment
Excerpt: Cells were imaged with an IX-83 microscope (Olympus, Tokyo, Japan) equipped with a BioPoint MAC6000 filter and shutter control unit (Ludl Electronic Products, Hawthorne, NY, USA), an automated XY-stage (Chuo Precision Industrial, Tokyo, Japan), an sDISK spinning disk confocal microscope (Andor Technology, Belfast, UK), and a Rolera EM-C^2 electron multiplying cooled charge-coupled device camera (QImaging, Surrey, BC, Canada). For epifluorescence microscopy, cells were illuminated with a SOLA Light Engine (Lumencor, Beaverton, OR, USA) and the following excitation and emission filters were used: FF02-438/24 and FF01-483/32 (Semrock, Rochester, NY, USA) for CFP; BP470-490 and BP510-550 (Olympus) for FITC; FF02-438/24 and FF01-542/27 for FRET; and BP520-550 and BA580IF (Olympus) for Alexa Fluor 594 and mRFP. For spinning-disk confocal imaging, cells were illuminated with a four-line (405, 488, 561, and 633 nm) laser module (Spectral Applied Research, Hamilton, ON, Canada) and the following emission filters were used: FF01-483/32 for CFP, FF01-542/27 for FRET, and BA580IF for TagRFP. Typical exposure times for 2×2 binning were 0.3 s. […]
Twenty-four hours after transfection, the cells were subjected to time-lapse confocal microscopy. […] P<0.0001 compared with before treatment, as calculated by repeated-measures ANOVA.

Structure (SMILES): CC(C)(O)CNc1ncc(-c2ccnc(Nc3ccnc(Cl)c3)n2)c(CC2CC2)n1 [Vps34-IN1]
- Amount of the Ras-PI3K complex in the endosome (BiFC) (Ras-PI3K complex): partially, but significantly reduced
- Endosomal localization of CFP-tagged Rab5 (class III PI3K Vps34): accumulated in the endosome
- Fluorescence signal in endosomes of RFP-tagged EEA-1 (class III PI3K Vps34): dramatically dispersed
